Converted amounts (≈) assume the structure as drawn. Like-named read-outs stand apart in the source and are kept apart here. Square brackets hold non-standard residues; d marks the D form. Peptide text beside a SMILES is read from it. Nspe = C[C@H](NCC(=O)O)c1ccccc1; NDecylGly = CCCCCCCCCCNCC(=O)O; Nlys = NCCCCNCC(=O)O
Key:
[1] = test system: ESKAPEE pathogens (all bacteria); assay: Geometric mean MIC, therapeutic index and selectivity ratio, all bacteria; assay type: cell-based; details: across the 23 ESKAPEE strains
Procedure: (§1) Briefly, bacteria were suspended in cation-adjusted Mueller–Hinton broth (CAMHB; Oxoid, UK) for antibiotics, or MHB (Oxoid, UK) for peptidomimetics to obtain 5 × 10^5 colony forming unit (CFU) ml^−1. […] Positive controls contained only microbes, and blanks contained only media. Microbial suspensions (100 µl) were added to wells, plates wrapped, and incubated at 37°C, 120 rpm for 16–20 h. After incubation, suspensions were removed, log10 diluted, and plated on Trypticase Soya Agar with phosphatidylcholine and Tween 80 to determine minimum bactericidal or fungicidal concentration (MBC or MFC). […] Geometric mean MIC of the peptoids were calculated to evaluate the broad overview of antimicrobial activity across the pathogens.
(§2) The therapeutic indices (TIs) of the compounds were calculated with the use of following formula: […]

Enterobacteriaceae = assay: Geometric mean MIC, therapeutic index and selectivity ratio, Enterobacteriaceae; assay type: cell-based; details: Enterobacteriaceae (E. coli, K. pneumoniae, and E. aerogenes)
Procedure: as §1, §2

E. coli 0010 = test system: E. coli 0010
Procedure, shortened: (§3)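 Cation-adjusted MHB for antibiotics, plain MHB for peptidomimetics; 5 × 10^5 CFU ml^−1; 16–20 h at 37°C, 120 rpm. Geometric mean MIC across pathogens calculated for peptoids.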

S. aureus 04 = test system: S. aureus 04
Procedure, shortened: as §3

[2] = test system: Enteroc. faecalis NCTC 13 379
Procedure, shortened: as §3

A. baumannii 005 = test system: A. baumannii 005
Procedure, shortened: as §3

K. pneumoniae JIE2709 = test system: K. pneumoniae JIE2709
Procedure, shortened: as §3

S. aureus 105 = test system: S. aureus 105
Procedure, shortened: as §3

C. auris CBS10913 [3] = test system: C. auris CBS10913
MBL-producing bacteria = assay: Geometric mean MIC, therapeutic index and selectivity ratio, MBL-producing bacteria; assay type: cell-based
Procedure: as §1
The test was performed as per the manufacturer’s instructions. Briefly, the strips were applied to a lawn culture of bacteria maintained at 1.5 × 10^8 CFU ml^−1 on Mueller–Hinton agar (Oxoid, UK) and incubated for 20 h at 37°C.
as §2

[4] = test system: MBL phenotypes of A. baumannii
Procedure: Briefly, bacteria were suspended in cation-adjusted Mueller–Hinton broth (CAMHB; Oxoid, UK) for antibiotics, or MHB (Oxoid, UK) for peptidomimetics to obtain 5 × 10^5 colony forming unit (CFU) ml^−1. […] Positive controls contained only microbes, and blanks contained only media. Microbial suspensions (100 µl) were added to wells, plates wrapped, and incubated at 37°C, 120 rpm for 16–20 h. […] Geometric mean MIC of the peptoids were calculated to evaluate the broad overview of antimicrobial activity across the pathogens.

MDR ESKAPE pathogens = details: ref Nielsen et al. [2022]; cited from earlier work
From the text: TM8, TM15, and TM19 featured terminal alkyl tails of either N-decyl or N-tridecyl, while all of them contained chiral aromatic Nspe along with NLys residues. Similarly, TM2, TM4, TM12, TM14, and TM19 w ... || Lipopeptoids can self-assemble into micellar macromolecules due to the hydrophobic tail domains driven by the intermolecular hydrophobic interactions. […] In a ...

[5] = test system: C. auris CBS12373 biofilm; assay: Anti-adherence (biofilm prevention), MTT reduction assay; assay type: cell-based, Candida auris
Procedure: Finally, 3-(4,5-Dimethylthiazol 2-yl)-2,5-diphenyltetrazolium bromide (MTT) reduction assay was performed to observe the metabolic activities of C. auris.

[6] = test system: C. auris CBS12373 biofilm; assay type: cell-based, Candida auris
Procedure: Another set of experiments was conducted under similar conditions similar to those used for MTT assay.

[7] = test system: Gram-positive bacteria (Enteroc. faecalis and S. aureus)
Procedure, shortened: as §3

C. auris CBS 10913 = assay: Sorbitol protection assay; assay type: cell-based, Candida auris; details: CBS10913
From the text: Caspofungin served as a positive control for the assay (Leite et al. [2014]).

C. auris CBS10913 [8] = assay: Membrane integrity by flow cytometry (SYTO 9 / PI); assay type: cell-based, Candida auris
Procedure: Afterwards, the cells were stained with SYTO 9 (7.5 µmol l^−1) and PI (30 µmol l^−1) for an additional 15 min in the dark at room temperature. Following washing, samples were then analysed for membrane integrity on a BD FACSymphony^TM A3, with a minimum of 10 000 events recorded per sample.

[9] = test system: C. auris CBS12373 biofilm; assay type: cell-based, Candida auris; details: for Mature biofilm inhibition, blank corrected 570 nm, av. of readings: MTT absorbance
Procedure: To assess disruption of mature biofilms, 2 × 10^5 cells were cultured for 2 h in 96-well flat bottom microtiter plates at 37°C, washed, then incubated for 48 h in fresh media to form mature biofilm. […] For each activity test, the metabolic activities of the yeast cells in biofilms were measured by MTT reduction assay after washing the disrupted biofilm with PBS (Srivastava and Ahmad [2020]).

[10] = E. coli 0010, MHB (melimine/Mel4 with 0.2% BSA, 0.01% acetic acid), mean MIC
[11] = Enteroc. faecalis NCTC 13 379, MHB (melimine/Mel4 with 0.2% BSA, 0.01% acetic acid), mean MIC
[12] = A. baumannii 005, MHB (melimine/Mel4 with 0.2% BSA, 0.01% acetic acid), mean MIC
[13] = K. pneumoniae JIE2709, MHB (melimine/Mel4 with 0.2% BSA, 0.01% acetic acid), mean MIC
[14] = S. aureus 105, MHB (melimine/Mel4 with 0.2% BSA, 0.01% acetic acid), mean MIC
[15] = CBS 10 913, RPMI 1640 with MOPS, 5 × 10^3 CFU ml^−1, ≥90% reduction (≥50% for fluconazole)

C[C@@H](c1ccccc1)N(CC(N)=O)C(=O)CN(C(=O)CN(CCCCN)C(=O)CN(C(=O)CN(C(=O)CN(CCCCN)C(=O)CN(C(=O)CN(C(=O)CN(CCCCN)C(=O)CN(C(=O)CN(C(=O)CNCCCCN)[C@@H](C)c1ccccc1)[C@@H](C)c1ccccc1)[C@@H](C)c1ccccc1)[C@@H](C)c1ccccc1)[C@@H](C)c1ccccc1)[C@@H](C)c1ccccc1)[C@@H](C)c1ccccc1 [TM1] (H-[Nlys][Nspe][Nspe][Nlys][Nspe][Nspe][Nlys][Nspe][Nspe][Nlys][Nspe][Nspe]-NH2)
Geometric mean MIC, all bacteria [1]: 13.0 µg/mL | Geometric mean MIC, all bacteria ([1]; value in brackets): 7.2 µM | Geometric mean MICE (Enterobacteriaceae): 23.7 µg/mL | MIC of peptidomimetics (E. coli 0010; 0010): 8.6 µM | MIC of peptidomimetics (E. coli 0010; [10]): 15.6 µg/mL | MIC of peptidomimetics (S. aureus 04; 04): 7.8 µg/mL | MIC of peptidomimetics [2, 11]: 31.3 µg/mL | MIC of peptidomimetics ([2]; Enteroc. faecalis NCTC 13 379, value in brackets): 17.2 µM | MIC of peptidomimetics (A. baumannii 005; 005): 2.1 µM | MIC of peptidomimetics (A. baumannii 005; [12]): 3.9 µg/mL | MIC of peptidomimetics (K. pneumoniae JIE2709; [13]): 15.6 µg/mL | MIC of peptidomimetics (K. pneumoniae JIE2709; K. pneumoniae JIE2709, value in brackets): 8.6 µM | MIC of peptidomimetics (S. aureus 105; 105): 2.1 µM | MIC of peptidomimetics (S. aureus 105; [14]): 3.9 µg/mL | MIC against C. auris (C. auris CBS10913 [3]; [15]): 15.6 µg/mL | MIC against C. auris (C. auris CBS10913 [3]; CBS10913): 8.6 µM | Geometric mean MICMBL (MBL-producing bacteria): 11.0 µg/mL | MIC ([4]; MBL phenotypes of A. baumannii): ≤ 7.8 µg/mL

CCCCCCCCCCNCC(=O)N(CCCCN)CC(=O)N(CC(=O)N(CC(=O)N(CCCCN)CC(=O)N(CC(=O)N(CC(N)=O)[C@@H](C)c1ccccc1)[C@@H](C)c1ccccc1)[C@@H](C)c1ccccc1)[C@@H](C)c1ccccc1 [TM8] (H-[NDecylGly][Nlys][Nspe][Nspe][Nlys][Nspe][Nspe]-NH2)
MIC against MDR ESKAPE pathogens (MDR ESKAPE pathogens): < 13 µg/mL | Geometric mean MIC, all bacteria [1]: 7.3 µg/mL | Geometric mean MIC, all bacteria ([1]; value in brackets): 6.6 µM | Biofilm tolerance factor-prevention (BPC/MIC) [5]: 8 | Anti-adherence (BPC) ([5]; 2 h adhesion with agent, 48 h growth, ≥90% reduction): 125 µg/mL | MBEC for mature biofilm [6]: 125 µg/mL | Geometric mean MICE (Enterobacteriaceae): 11.0 µg/mL | MIC of peptidomimetics (E. coli 0010; 0010): 14.0 µM | MIC of peptidomimetics (E. coli 0010; [10]): 15.6 µg/mL | MIC of peptidomimetics (S. aureus 04; 04): 3.5 µM | MIC of peptidomimetics (S. aureus 04; S. aureus 004, MHB (melimine/Mel4 with 0.2% BSA, 0.01% acetic acid), mean MIC): 3.9 µg/mL | MIC of peptidomimetics [2, 11]: 7.8 µg/mL | MIC of peptidomimetics ([2]; NCTC 13): 7.0 µM | MIC of peptidomimetics (A. baumannii 005; 005): 7.0 µM | MIC of peptidomimetics (A. baumannii 005; [12]): 7.8 µg/mL | MIC of peptidomimetics (K. pneumoniae JIE2709; JIE2709): 14.0 µM | MIC of peptidomimetics (K. pneumoniae JIE2709; [13]): 15.6 µg/mL | MIC range [7]: 3.9 to 7.8 µg/mL | MIC of peptidomimetics (S. aureus 105; 105): 3.5 µM | MIC of peptidomimetics (S. aureus 105; [14]): 3.9 µg/mL | MIC in the presence of sorbitol (C. auris CBS 10913): 7.8 µg/mL | MIC without sorbitol (C. auris CBS 10913): 7.8 µg/mL (≈ 6.99 µM) | MIC against C. auris (C. auris CBS10913 [3]; [15]): 7.8 µg/mL | MIC against C. auris (C. auris CBS10913 [3]; CBS10913): 7.0 µM | MIC at high cell density (C. auris CBS10913 [3]; CBS10913): 15.6 µg/mL (≈ 14 µM) | Dead cells (C. auris CBS10913 [8]; TM8 at its MIC or 1% Triton X-100, 90 min, PBS control 0.2%): 3.9% | SYTO 9 fluorescent signal of C. auris (C. auris CBS10913 [8]; TM8 at its MIC, 90 min, 37°C, PBS, PBS control 51.7%): 25.5% | Cells doubly stained with SYTO 9 and PI (C. auris CBS10913 [8]; TM8 at its MIC, 90 min, PBS control 0.7%): 21.5% | Geometric mean MICMBL (MBL-producing bacteria): 7.8 µg/mL | MIC ([4]; MBL phenotypes of): ≤ 7.8 µg/mL | Biofilm tolerance factor-eradication (MBEC/MIC) ([9]; C. auris CBS12373, MTT): 4 | Mature biofilm MBEC ([9]; CBS12373 biofilm, 48 h): 62.5 µg/mL | Mature biofilm inhibition, blank corrected 570 nm, av. of readings ([9]; agent at 0.976562 (growth control 1.115)): 1.684 | Mature biofilm inhibition, blank corrected 570 nm, av. of readings ([9]; agent at 1.95312 (growth control 1.115)): 1.307 | Mature biofilm inhibition, blank corrected 570 nm, av. of readings ([9]; agent at 3.90625 (growth control 1.115)): 0.871 | Mature biofilm inhibition, blank corrected 570 nm, av. of readings ([9]; agent at 7.8125 (growth control 1.115)): 0.456 | Mature biofilm inhibition, blank corrected 570 nm, av. of readings ([9]; agent at 15.625 (growth control 1.115)): 0.49 | Mature biofilm inhibition, blank corrected 570 nm, av. of readings ([9]; agent at 31.25 (growth control 1.115)): 0.129 | Mature biofilm inhibition, blank corrected 570 nm, av. of readings ([9]; agent at 62.5 (growth control 1.115)): 0 | Mature biofilm inhibition, blank corrected 570 nm, av. of readings ([9]; agent at 125 (growth control 1.115)): -0.0001 | Mature biofilm inhibition, blank corrected 570 nm, av. of readings ([9]; agent at 250 (growth control 1.115)): 0.02 | Mature biofilm inhibition, blank corrected 570 nm, av. of readings ([9]; agent at 500 (growth control 1.115)): 0.02

Reference: publication PMC11879280, “Antimicrobial activity of peptoids against Metallo-β-lactamase-producing Klebsiella pneumoniae, Acinetobacter baumannii, Pseudomonas aeruginosa, and other WHO priority pathogens, including Candida auris” (Journal of Applied Microbiology, 2025)
